Patent US20080194585A1, “Fungicidal Pyrazine Derivatives” (priority 2005, published 2008)
Where two headings read alike, the source gives them in different places.

Legend:
Plasmopara viticola = experiment: Test D: grape downy mildew, spray after inoculation of grape seedlings; type: in vivo; conditions: for pest or weed control at 40 ppm / pest or weed control at 200 ppm: Plasmopara viticola, 168 h, read-out: Test D disease control rating; for pest or weed control at 200 ppm / Test D disease control rating: 200 ppm
Source text: Upon removal, disease ratings were made. […] A dash (-) indicates no test results.

Phytophthora infestans = experiment: whole plant or invertebrate; type: in vivo; conditions: for pest or weed control at 40 ppm / pest or weed control at 200 ppm: Phytophthora infestans, in Solanum lycopersicum, topical, 144 h, read-out: Test F disease control rating; for Test F disease control rating: 200 ppm
Septoria tritici = experiment: Test J: wheat leaf blotch, preventive spray on wheat seedlings; type: in vivo
Source text: A dash (-) indicates no test results.

fusarium graminearium = experiment: Test I: wheat head scab, preventive spray on wheat seedlings; conditions: for pest or weed control at 40 ppm / pest or weed control at 200 ppm: Fusarium, in Triticum aestivum, topical, 192 h; for pest or weed control at 200 ppm: read-out: Test I disease control rating, 200 ppm; for Test I disease control rating: 200 ppm
Experimental: (the causal agent of wheat head scab) and incubated in a saturated atmosphere at 20° C. for 72 h, and then moved to a growth chamber at 22° C. for 5 days, after which disease ratings were made.

[1] = test system: Puccinia recondita f. sp. tritici; experiment: Test K: wheat leaf rust, preventive spray on wheat seedlings; conditions: for pest or weed control at 40 ppm / pest or weed control at 200 ppm: Puccinia recondita, in Triticum aestivum, 192 h, read-out: Test K disease control rating; for Test K disease control rating: 200 ppm
Botrytis cinerea = experiment: Test E: tomato botrytis, preventive spray on tomato seedlings; conditions: for pest or weed control at 40 ppm / pest or weed control at 200 ppm: Botrytis cinerea, in Solanum lycopersicum, topical, 72 h, read-out: Test E disease control rating; for Test E disease control rating: 200 ppm
Septoria nodorum = experiment: Test H: wheat glum blotch, preventive spray on wheat seedlings; conditions: for pest or weed control at 40 ppm / pest or weed control at 200 ppm: Parastagonospora nodorum, in Triticum aestivum, topical, 168 h; for pest or weed control at 200 ppm: read-out: Test H disease control rating, 200 ppm; for Test H disease control rating: 200 ppm
Experimental: (the causal agent of wheat glum blotch) and incubated in a saturated atmosphere at 20° C. for 48 h, and then moved to a growth chamber at 22° C. for 5 days, after which disease ratings were made.

[2] = test system: Erysiphe graminis f. sp. tritici; experiment: Test L: wheat powdery mildew, preventive spray on wheat seedlings; conditions: for pest or weed control at 40 ppm / pest or weed control at 200 ppm: Blumeria graminis, in Triticum aestivum, 168 h; for pest or weed control at 200 ppm: read-out: Test L disease control rating, 200 ppm; for Test L disease control rating: 200 ppm
Pythium aphanidermatum = experiment: Test A: bluegrass pythium blight, preventive spray on bluegrass seedlings; conditions: for pest or weed control at 40 ppm / pest or weed control at 200 ppm: Pythium aphanidermatum, 120 h, read-out: Test A disease control rating; for Test A disease control rating: 200 ppm
Rhizoctonia oryzae = experiment: Test G: turf brown patch, preventive spray on creeping bent grass seedlings; conditions: for pest or weed control at 40 ppm / pest or weed control at 200 ppm: Waitea circinata, in Agrostis stolonifera, topical, 144 h; for pest or weed control at 200 ppm: read-out: Test G disease control rating, 200 ppm; for Test G disease control rating: 200 ppm
Experimental: (the causal agent of turf brown patch) and incubated in a saturated atmosphere at 27° C. for 24 h, and then moved to a growth chamber at 27° C. for 5 days, after which disease ratings were made.

[3] = test system: Colletotrichum orbiculare; experiment: Test B: cucumber Colletotrichum anthracnose, preventive spray on cucumber seedlings; conditions: for pest or weed control at 40 ppm / pest or weed control at 200 ppm: Colletotrichum orbiculare, in Cucumis sativus, 144 h; for pest or weed control at 200 ppm: read-out: Test B disease control rating, 200 ppm; for Test B disease control rating: 200 ppm
[4] = Zymoseptoria tritici, 528 h, 40 ppm (*), read-out: Test J disease control rating
[5] = read-out: Test I disease control rating, 40 ppm (*)
[6] = read-out: Test H disease control rating, 40 ppm (*)
[7] = read-out: Test L disease control rating, 40 ppm (*)
[8] = read-out: Test G disease control rating, 40 ppm (*)
[9] = read-out: Test B disease control rating, 40 ppm (*)
[10] = 100 = 100% disease control, 0 = no control
[11] = Zymoseptoria tritici, 528 h, 40 ppm (marked *), 100 = 100% disease control, 0 = no control, read-out: Test J disease control rating
[12] = 100 = 100% disease control, 0 = no control relative to controls

SMILES | Test D disease control rating (Plasmopara viticola) [%] | Test F disease control rating (Phytophthora infestans) [%] | Test J disease control rating (Septoria tritici; 200 ppm) [%] | Test I disease control rating (fusarium graminearium) [%] | Test K disease control rating [1] [%] | Test E disease control rating (Botrytis cinerea) [%] | Test H disease control rating (Septoria nodorum) [%] | Test L disease control rating [2] [%] | Test A disease control rating (Pythium aphanidermatum) [%] | Test G disease control rating (Rhizoctonia oryzae) [%] | Test B disease control rating [3] [%] | further results
O=c1c(-n2cccn2)nc(Cl)c(-c2c(F)cccc2F)n1-c1ccccc1 [Compound 161, 5-Chloro-6-(2,6-difluorophenyl)-1-phenyl-3-(1H-pyrazol-1-yl)-2(1H)-pyrazinone] | – | – | – | – | – | – | – | – | – | – | – | pest or weed control at 40 ppm (Plasmopara viticola; 40 ppm (*)): 0%; pest or weed control at 40 ppm (Phytophthora infestans): 0%; pest or weed control at 40 ppm (Septoria tritici; [4]): 97%; pest or weed control at 40 ppm (fusarium graminearium; [5]): 69%; pest or weed control at 40 ppm [1]: 100%; pest or weed control at 40 ppm (Botrytis cinerea): 100%; pest or weed control at 40 ppm (Septoria nodorum; [6]): 100%; pest or weed control at 40 ppm [2, 7]: 90%; pest or weed control at 40 ppm (Pythium aphanidermatum): 0%; pest or weed control at 40 ppm (Rhizoctonia oryzae; [8]): 68%; pest or weed control at 40 ppm [3, 9]: 77%
CCC(C)Cn1c(-c2ccc(F)cc2Cl)c(Cl)nc(-n2ccc(C)n2)c1=O (stereo not shown) [Compound 170, 5-Chloro-6-(2-chloro-4-fluorophenyl)-1-(2-methylbutyl)-3-(3-methyl-1H-pyrazol-1-yl)-2(1H)-pyrazinone] | – | – | – | – | – | – | – | – | – | – | – | pest or weed control at 40 ppm (Plasmopara viticola; 40 ppm (*)): 0%; pest or weed control at 40 ppm (Phytophthora infestans): 0%; pest or weed control at 40 ppm (Septoria tritici; [4]): 100%; pest or weed control at 40 ppm (fusarium graminearium; [5]): 0%; pest or weed control at 40 ppm [1]: 100%; pest or weed control at 40 ppm (Botrytis cinerea): 100%; pest or weed control at 40 ppm (Septoria nodorum; [6]): 100%; pest or weed control at 40 ppm [2, 7]: 99%; pest or weed control at 40 ppm (Pythium aphanidermatum): 0%; pest or weed control at 40 ppm (Rhizoctonia oryzae; [8]): 26%; pest or weed control at 40 ppm [3, 9]: 100%
CCC(C)Cn1c(-c2c(F)cccc2F)c(Cl)nc(C(N)=O)c1=O (stereo not shown) [Compound 298, 6-Chloro-5-(2,6-difluorophenyl)-3,4-dihydro-4-(2-methylbutyl)-3-oxopyrazinecarboxamide] | – | – | – | – | – | – | – | – | – | – | – | pest or weed control at 200 ppm (Plasmopara viticola; [10]): 85%; pest or weed control at 200 ppm (Phytophthora infestans): 100%; pest or weed control at 200 ppm (Septoria tritici; Zymoseptoria tritici, 528 h, 200 ppm, 100 = 100% disease control, 0 = no control, read-out: Test J disease control rating): 100%; pest or weed control at 200 ppm (fusarium graminearium; [10]): 96%; pest or weed control at 200 ppm [1]: 100%; pest or weed control at 200 ppm (Botrytis cinerea): 99%; pest or weed control at 200 ppm (Septoria nodorum; [10]): 99%; pest or weed control at 200 ppm [2, 10]: 89%; pest or weed control at 200 ppm (Pythium aphanidermatum): 88%; pest or weed control at 200 ppm (Rhizoctonia oryzae; [10]): 78%; pest or weed control at 200 ppm [3, 10]: 66%
O=c1c(-n2cccn2)nc(Cl)c(-c2c(F)cc(F)cc2F)n1-c1cccc(F)c1 [Compound 324, 5-Chloro-1-(3-fluorophenyl)-3-(1H-pyrazol-1-yl)-6-(2,4,6-trifluorophenyl)-2(1H)-pyrazinone] | – | – | – | – | – | – | – | – | – | – | – | pest or weed control at 40 ppm (Plasmopara viticola; 40 ppm (marked *), 100 = 100% disease control, 0 = no control): 0%; pest or weed control at 40 ppm (Phytophthora infestans): 0%; pest or weed control at 40 ppm (Septoria tritici; [11]): 100%; pest or weed control at 40 ppm (fusarium graminearium; read-out: Test I disease control rating, 40 ppm (marked *), 100 = 100% disease control, 0 = no control): 49%; pest or weed control at 40 ppm [1]: 100%; pest or weed control at 40 ppm (Botrytis cinerea): 99%; pest or weed control at 40 ppm (Septoria nodorum; read-out: Test H disease control rating, 40 ppm (marked *), 100 = 100% disease control, 0 = no control): 100%; pest or weed control at 40 ppm ([2]; read-out: Test L disease control rating, 40 ppm (marked *), 100 = 100% disease control, 0 = no control): 100%; pest or weed control at 40 ppm (Pythium aphanidermatum): 0%; pest or weed control at 40 ppm (Rhizoctonia oryzae; read-out: Test G disease control rating, 40 ppm (marked *), 100 = 100% disease control, 0 = no control): 97%; pest or weed control at 40 ppm ([3]; read-out: Test B disease control rating, 40 ppm (marked *), 100 = 100% disease control, 0 = no control): 99%
CCC(C)c1c(Cl)nc(-n2cccn2)c(=O)n1CC(C)C (stereo not shown) [Compound 424, 5-Chloro-6-(1-methylpropyl)-1-(2-methylpropyl)-3-(1H-pyrazol-1-yl)-2(1H)-pyrazinone] | – | – | – | – | – | – | – | – | – | – | – | pest or weed control at 200 ppm (Plasmopara viticola; [12]): 0%; pest or weed control at 200 ppm (Phytophthora infestans): 0%; pest or weed control at 40 ppm (Septoria tritici; [11]): 37%; pest or weed control at 200 ppm (fusarium graminearium; [12]): 0%; pest or weed control at 200 ppm [1]: 100%; pest or weed control at 200 ppm (Botrytis cinerea): 96%; pest or weed control at 200 ppm (Septoria nodorum; [12]): 0%; pest or weed control at 200 ppm [2, 12]: 100%; pest or weed control at 200 ppm (Pythium aphanidermatum): 0%; pest or weed control at 200 ppm (Rhizoctonia oryzae; [12]): 99%; pest or weed control at 200 ppm [3, 12]: 0%
O=c1c(-n2cncn2)nc(Cl)c(-c2c(F)cccc2F)n1CC1CC1 [compound 17] | 54 | 0 | 87 | 94 | 100 | 100 | 100 | 99 | 0 | 99 | 0 | –
CC(C)Cn1c(-c2ccc(Cl)cc2)c(Cl)nc(-n2cccn2)c1=O [compound 22] | 0 | 0 | 98 | 0 | 79 | 100 | 0 | 0 | 0 | 0 | 0 | –
CCCC(C)n1c(-c2c(F)cccc2F)c(Cl)nc(-n2cccn2)c1=O (stereo not shown) [compound 25] | 0 | 0 | 100 | 0 | 100 | 99 | 100 | 100 | 0 | 100 | 100 | –
CC(C)n1c(-c2c(F)cccc2F)c(Cl)nc(-n2cccn2)c1=O [compound 26] | 16 | 0 | 96 | 0 | 100 | 100 | 100 | 100 | 0 | 92 | 99 | –
CCCn1c(-c2c(F)cccc2F)c(Cl)nc(-n2cccn2)c1=O [compound 27] | 47 | 0 | 100 | 0 | 100 | 100 | 100 | 100 | 0 | 67 | 99 | –
CCCCCn1c(-c2c(F)cccc2F)c(Cl)nc(-n2cccn2)c1=O [compound 28] | 0 | 0 | 100 | 0 | 97 | 92 | 99 | 97 | 0 | 31 | 98 | –
